#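 Five compound concentrations were applied to cells in 96-well plates for 48 hours; endpoints were derived by simple linear interpolation of the resulting dose-response curve. At the GI50, growth is halved. TGI is the concentration that stops growth completely.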
# Experiments:
# Assay in all cases: NCI anticancer screen, dose series, 48 h
# 786-0 renal = system: 786-0 renal
# A498 renal = system: A498 renal
# A549 NSCLC = system: A549 NSCLC
# ACHN renal = system: ACHN renal
# BT-549 breast = system: BT-549 breast
# CAKI-1 renal = system: CAKI-1 renal
# CCRF-CEM leukemia = system: CCRF-CEM leukemia
# COLO 205 colon = system: COLO 205 colon
# DU-145 prostate = system: DU-145 prostate
# HCC-2998 colon = system: HCC-2998 colon
# HCT-116 colon = system: HCT-116 colon
# HCT-15 colon = system: HCT-15 colon
# HL-60(TB) leukemia = system: HL-60(TB) leukemia
# HOP-62 NSCLC = system: HOP-62 NSCLC
# HOP-92 NSCLC = system: HOP-92 NSCLC
# HS 578T breast = system: HS 578T breast
# HT29 colon = system: HT29 colon
# IGROV1 ovarian = system: IGROV1 ovarian
# K-562 leukemia = system: K-562 leukemia
# KM12 colon = system: KM12 colon
# LOX IMVI melanoma = system: LOX IMVI melanoma
# M14 melanoma = system: M14 melanoma
# MALME-3M melanoma = system: MALME-3M melanoma
# MCF7 breast = system: MCF7 breast
# MDA-MB-231 breast = system: MDA-MB-231 breast
# MDA-MB-435 = system: MDA-MB-435
# MOLT-4 leukemia = system: MOLT-4 leukemia
# NCI-H226 lung = system: NCI-H226 lung
# NCI-H23 lung = system: NCI-H23 lung
# NCI-H460 lung = system: NCI-H460 lung
# NCI-H522 lung = system: NCI-H522 lung
# NCI/ADR-RES ovarian = system: NCI/ADR-RES ovarian
# OVCAR-3 ovarian = system: OVCAR-3 ovarian
# OVCAR-4 ovarian = system: OVCAR-4 ovarian
# OVCAR-5 ovarian = system: OVCAR-5 ovarian
# OVCAR-8 ovarian = system: OVCAR-8 ovarian
# PC-3 prostate = system: PC-3 prostate
# RPMI-8226 leukemia = system: RPMI-8226 leukemia
# RXF 393 renal = system: RXF 393 renal
# SF-268 CNS = system: SF-268 CNS
# SF-295 CNS = system: SF-295 CNS
# SF-539 CNS = system: SF-539 CNS
# SK-MEL-2 melanoma = system: SK-MEL-2 melanoma
# SK-MEL-28 melanoma = system: SK-MEL-28 melanoma
# SK-MEL-5 melanoma = system: SK-MEL-5 melanoma
# SK-OV-3 ovarian = system: SK-OV-3 ovarian
# SN12C renal = system: SN12C renal
# SNB-19 CNS = system: SNB-19 CNS
# SNB-75 CNS = system: SNB-75 CNS
# SW-620 colon = system: SW-620 colon
# T-47D breast = system: T-47D breast
# TK-10 renal = system: TK-10 renal
# U251 CNS = system: U251 CNS
# UACC-257 melanoma = system: UACC-257 melanoma
# UACC-62 melanoma = system: UACC-62 melanoma
# UO-31 renal = system: UO-31 renal
smiles,measurement,setting,value
c1ccc(-c2nc(N3CCOCC3)c3c4c(sc3n2)CCCCCC4)nc1,GI50,786-0 renal,11.7 µM
same,TGI,786-0 renal,32.8 µM
same,GI50,A498 renal,1.65 µM
same,TGI,A498 renal,8.63 µM
same,GI50,A549 NSCLC,3.57 µM
same,TGI,A549 NSCLC,15.9 µM
same,GI50,ACHN renal,4.49 µM
same,TGI,ACHN renal,16.6 µM
same,GI50,BT-549 breast,4.38 µM
same,TGI,BT-549 breast,16.7 µM
same,GI50,CAKI-1 renal,2.29 µM
same,TGI,CAKI-1 renal,16.1 µM
same,GI50,CCRF-CEM leukemia,3.59 µM
same,TGI,CCRF-CEM leukemia,18.9 µM
same,GI50,COLO 205 colon,9.4 µM
same,TGI,COLO 205 colon,22.3 µM
same,GI50,DU-145 prostate,6.93 µM
same,TGI,DU-145 prostate,19.6 µM
same,GI50,HCC-2998 colon,6.99 µM
same,TGI,HCC-2998 colon,19.8 µM
same,GI50,HCT-116 colon,3.69 µM
same,TGI,HCT-116 colon,15.3 µM
same,GI50,HCT-15 colon,3.43 µM
same,TGI,HCT-15 colon,18.6 µM
same,GI50,HL-60(TB) leukemia,4.49 µM
same,TGI,HL-60(TB) leukemia,22.8 µM
same,GI50,HOP-62 NSCLC,9.53 µM
same,TGI,HOP-62 NSCLC,24.6 µM
same,GI50,HOP-92 NSCLC,0.622 µM
same,TGI,HOP-92 NSCLC,5.05 µM
same,GI50,HS 578T breast,3.37 µM
same,TGI,HS 578T breast,42.3 µM
same,GI50,HT29 colon,6.05 µM
same,TGI,HT29 colon,22.7 µM
same,GI50,IGROV1 ovarian,3.16 µM
same,TGI,IGROV1 ovarian,9.95 µM
same,GI50,K-562 leukemia,3.47 µM
same,TGI,K-562 leukemia,23.7 µM
same,GI50,KM12 colon,4.28 µM
same,TGI,KM12 colon,16.1 µM
same,GI50,LOX IMVI melanoma,5.24 µM
same,TGI,LOX IMVI melanoma,20.9 µM
same,GI50,M14 melanoma,4.17 µM
same,TGI,M14 melanoma,16.5 µM
same,GI50,MALME-3M melanoma,3.32 µM
same,TGI,MALME-3M melanoma,14.9 µM
same,GI50,MCF7 breast,3.04 µM
same,TGI,MCF7 breast,12.8 µM
same,GI50,MDA-MB-231 breast,7.43 µM
same,TGI,MDA-MB-231 breast,25.9 µM
same,GI50,MDA-MB-435,4.82 µM
same,TGI,MDA-MB-435,17.7 µM
same,GI50,MOLT-4 leukemia,3.77 µM
same,TGI,MOLT-4 leukemia,17 µM
same,GI50,NCI-H226 lung,5 µM
same,TGI,NCI-H226 lung,24 µM
same,GI50,NCI-H23 lung,5.99 µM
same,TGI,NCI-H23 lung,26.5 µM
same,GI50,NCI-H460 lung,3.68 µM
same,TGI,NCI-H460 lung,16 µM
same,GI50,NCI-H522 lung,5.85 µM
same,TGI,NCI-H522 lung,20.2 µM
same,GI50,NCI/ADR-RES ovarian,0.836 µM
same,TGI,NCI/ADR-RES ovarian,18.2 µM
same,GI50,OVCAR-3 ovarian,4.6 µM
same,TGI,OVCAR-3 ovarian,16.2 µM
same,GI50,OVCAR-4 ovarian,4.85 µM
same,TGI,OVCAR-4 ovarian,80.3 µM
same,GI50,OVCAR-5 ovarian,10.3 µM
same,TGI,OVCAR-5 ovarian,26.5 µM
same,GI50,OVCAR-8 ovarian,5.08 µM
same,TGI,OVCAR-8 ovarian,30.5 µM
same,GI50,PC-3 prostate,2.69 µM
same,TGI,PC-3 prostate,11.8 µM
same,GI50,RPMI-8226 leukemia,2.12 µM
same,TGI,RPMI-8226 leukemia,9.67 µM
same,GI50,RXF 393 renal,8.38 µM
same,TGI,RXF 393 renal,25.5 µM
same,GI50,SF-268 CNS,8.82 µM
same,TGI,SF-268 CNS,22.6 µM
same,GI50,SF-295 CNS,3.39 µM
same,TGI,SF-295 CNS,15.8 µM
same,GI50,SF-539 CNS,13 µM
same,TGI,SF-539 CNS,26.7 µM
same,GI50,SK-MEL-2 melanoma,7.9 µM
same,TGI,SK-MEL-2 melanoma,21.7 µM
same,GI50,SK-MEL-28 melanoma,11 µM
same,TGI,SK-MEL-28 melanoma,23.2 µM
same,GI50,SK-MEL-5 melanoma,1.99 µM
same,TGI,SK-MEL-5 melanoma,9.45 µM
same,GI50,SK-OV-3 ovarian,9.25 µM
same,TGI,SK-OV-3 ovarian,22.5 µM
same,GI50,SN12C renal,5 µM
same,TGI,SN12C renal,29.4 µM
same,GI50,SNB-19 CNS,8.36 µM
same,TGI,SNB-19 CNS,21.6 µM
same,GI50,SNB-75 CNS,7.1 µM
same,TGI,SNB-75 CNS,20.8 µM
same,GI50,SW-620 colon,8.87 µM
same,TGI,SW-620 colon,21.9 µM
same,GI50,T-47D breast,4.46 µM
same,TGI,T-47D breast,22.7 µM
same,GI50,TK-10 renal,9.28 µM
same,TGI,TK-10 renal,25.5 µM
same,GI50,U251 CNS,4.38 µM
same,TGI,U251 CNS,17 µM
same,GI50,UACC-257 melanoma,10.9 µM
same,TGI,UACC-257 melanoma,23.2 µM
same,GI50,UACC-62 melanoma,3.44 µM
same,TGI,UACC-62 melanoma,14.3 µM
same,GI50,UO-31 renal,1.17 µM
same,TGI,UO-31 renal,10.3 µM

# Reference: PubChem BioAssay (NCI)
